Assay results published in patent publication US7754064B2, “Methods and apparatus for the on-site production of hydrogen peroxide” (Eltron Research & Development, priority 2006, dated 2010).

Assays:
[1] = test system: mixed plankton
From the text: This study largely entailed LD50 and LD100 lethality screening of the target chemistry produced by the electrolytic system under development to natural marine organisms. Specifically, the work focused on organisms with sizes of less than 100 μm as larger organisms can be readily eliminated by other technologies (screening or hydrocyclones). Within this size regime normal crustaceans, planktons, and etc. obtained by trawling were targeted. […] For the trawled organisms and the protozoan, destruction was noted by lack of motility.
Mixed indigenous zooplankton (these provided random samples of a variety of organisms as might be encountered in ballast water) were obtained by plankton trawls from the waters off Woods Hole, Mass. and the toxicity assays focused on zooplankton (such as dinoflagellates which are less prone to sedimentation than say diatoms) where viability could be readily assessed through motility monitoring. After the samples were collected they were counted and separated into sample populations under a dissecting scope with a low heat lamp using standard techniques. […]
Toxicity studies were performed on the targeted plankton samples by exposing them to synthetic cell product and monitored until mortality occurred. […]

[2] = test system: Vibrio hollisae; details: 20° C., 3-50 ppm H2O2, 6-30 minutes exposure
Method: A stock culture of Vibrio hollisae was diluted to 1×10-5 with micropore filtered seawater (FSW). The dilution was calculated to yield a sample density of roughly 350 CFUs/mL after 48 hr of grow up. The experimental matrix consisted of peroxide concentration versus exposure time. The bacteria were exposed to the peroxide in liquid cultures, and then the treated bacteria were plated onto agar plates and colony counts done at 24 and 48 hrs. Data were analyzed for LD-100 conditions for maximal effect at lowest concentration and shortest exposure time. Six tubes of 5 mL bacterial culture were prepared. […] A control sample containing NO peroxide was also prepared. At each treatment exposure time point (6, 10, 15, and 30 minutes respectively), 1 mL was removed from each tube and filtered through a mixed cellulose ester filter (0.45 micron pore size, 47 mm dia., Fisher #09-719-1A). Each filter was then placed onto a TCBS (thiosulfate, citrate, bile, and sucrose) media plate and incubated for 48 hr at room temperature (23° C.). Standard colony counts were then made for the entire filter for each treatment condition. The procedure was repeated in triplicate. For each repetition, three separate samples (batches) were prepared and two duplicate trials were run for each batch sample. The results were statistically analyzed using ANOVA and paired student t-test paired comparisons. […]

[3] = test system: QPX (Quahog Parasite-X)
Method: For the QPX studies, a stock QPX culture (Quahog Parasite-X, a protista slime mold causing shellfish disease) was washed three times in sterile nature seawater (NSW) to remove the nutrient media and disperse the encapsulating mucous mass. The washed sample was then re-suspended in sterile NSW (working culture). A sample aliquot was removed and diluted (1:1) in sterile NSW to determine the actual cell density. […] A control sample with NO peroxide in the treatment solution was also prepared. […] After incubation (48 hrs) the remainder of the innocula were centrifiged at 10,000 G for 2 minutes. All fluid was removed from the tube to leave a final volume of 100 μL. Propidium iodide (100 μL; 20 g/mL) was added to each tube and allowed to sit for 30 minutes in the dark at room temperature. The tubes were then centrifuged (10,000 G for 2 minutes) and the resulting pellet washed three times with filtered NSW (250 μL). After the third wash, 200 μL of fluid was removed from each tube and the pellet was re-suspended in the remaining 50 μL of fluid. The fluids generated from this preparation were added to a Neubauer hemocytometer counting chamber and the cell concentrations were determined between treatments. […]

[4] = test system: Perkinsus marinus; details: treatment time 30 minutes, four trials
Method: The final series of trials explored the effectiveness of the treatment against the protozoan Perkinsus marinus which is pathogenic to shellfish and causes the disease Dermo. Essentially the same protocol used for QPX was adapted to Perkinsus and represented a novel method of determining Perkinsus viability after disinfection treatments. Here four duplicate trials were run, again with a treatment time of 30 minutes.

[5] = test system: Pseudomonas cepacia; details: alkaline solutions of 1000 ppm H2O2, filtration units
[6] = test system: biofouling; details: cited from earlier work

OO [hydrogen peroxide]
time*dosage factor for plankton kill ([1]; mixed plankton, 4, 10 and 20° C., from LD-50 and LD-100, averaged over four concentrations): 1000 to 3000 ppm min. | LD50's as percent of 100% mortality times ([1]; mixed zooplankton in natural seawater with added H2O2): 40-50% | time dosage values sufficient to achieve 2 log kills (99%) [2]: 1000 to 2000 ppm min. | average viable cell count ([3]; 10 ppm H2O2, 30 min., 20° C., average of two trials): 430 cells/L | resistance to the treatment compared with general plankton and Vibrio ssp. ([3]; 30 minutes treatment, 0-150 ppm): slightly more resistant | time*dosage values sufficient to reduce occurrence of Perkinsus to hinder spread of disease [4]: 1500 to 5000 ppm | Pseudomonas cepacia eliminated [5]: more than 100% | log kill of Pseudomonas cepacia [5]: 7 log | concentration typically required for sufficient effectiveness in sterilization ([6]; industrial disinfection (powerplant biofouling, sewage treatment)): 50-200 ppm | concentration that can be effective towards fouling control ([6]; recent data): 2 ppm
